{"source": "patent US20200056174A1", "about": "“COMPOSITIONS AND METHODS OF TREATING CANCER” (DANA-FARBER CANCER INSTITUTE, INC., priority 2016, published 2020)", "key": {"BT-20/MUC1-C cells": {"test_system": "BT-20/MUC1-C cells", "test": "Expression (qRT-PCR, immunoblot) in treated BT-20/MUC1-C cells", "type": "cell-based, human", "conditions": "vs vehicle", "experimental": "(§1) Cell culture. Human BT-549, SUM-159 and mouse Eo771 TNBC cells were propagated in RPMI1640 medium (ATCC, Manassas, Va., USA). Human MDA-MB-468 and MDA-MB-231 TNBC cells were cultured in Dulbecco's modified Eagle's medium (DMEM) (Corning, Manassas, Va., USA). Human BT-20 TNBC cells were cultured in Eagle's Minimum Essential Medium (EMEM) (ATCC). Media were supplemented with 10% heat-inactivated fetal bovine serum, 100 units/ml penicillin, and 100 μg/ml streptomycin. Authentication of the cells was performed by short tandem repeat (STR) analysis. Cells were monitored for Mycoplasma contamination by MycoAlert® Mycoplasma Detection Kit (Lonza, Rockland, Mass., USA). BT-549 and MDA-MB-231 cells were transfected with lentiviral vectors to stably express a scrambled control shRNA (CshRNA; Sigma, St. Louis, Mo., USA) and a NF-κB p65 shRNA (Sigma). Human BT-20 and mouse Eo771 cells were stably transfected to express an empty vector or one encoding MUC1-C. […]\n(§2) Quantitative real-time, reverse transcriptase PCR (qRT-PCR). […]\n(§3) Immunoblot analysis. […] Immunoreactive complexes were detected using horseradish peroxidase-conjugated secondary antibodies (GE Healthcare Life Sciences, Marlborough, Mass., USA) and an enhanced chemiluminescence (ECL) detection reagents (Perkin Elmer Health Sciences, Waltham, Mass., USA). […] Lysates were analyzed using the Lightswitch Luciferase Assay Kit (Active Motif)."}, "Eo771/MUC1-C cells": {"test_system": "Eo771/MUC1-C cells", "test": "Expression (qRT-PCR, immunoblot) in treated Eo771/MUC1-C cells", "type": "cell-based, mouse", "conditions": "vs vehicle", "experimental": "as §1, §2, §3"}, "H1975 cells": {"test_system": "H1975 cells", "test": "Gene expression (qRT-PCR) in treated H1975 NSCLC cells", "type": "cell-based, human", "conditions": "5 μM BAY-11-7085, 18 h, vs DMSO", "experimental": "(§4) Cell culture. Human A549/KRAS(G12S), H460/KRAS(Q61H) and H1975/EGFR(L858R/T790M) NSCLC cells (ATCC) were grown in RPMI1640 medium supplemented with 10% heat-inactivated fetal bovine serum (HI-FBS), 100 μg/ml streptomycin, 100 units/ml penicillin and 2 mM L-glutamine. Authentication of the cells was performed by short tandem repeat (STR) analysis. Cells were transfected with lentiviral vectors to stably express a scrambled control shRNA (CshRNA; Sigma), a MUC1 shRNA (MUC1shRNA; Sigma), a NF-κB p65 shRNA (Sigma), MUC1-C or MUC1-C (AQA) (27, 8, 49). Cells were treated with the IκB inhibitor BAY-11-7085 (Sigma) or DMSO as the vehicle control. Cells were also treated with empty nanoparticles (NPs) or GO-203/NPs (39).\n(§5) Quantitative real-time, reverse transcriptase PCR (qRT-PCR). Whole cell RNA was isolated using the RNeasy mini kit (Qiagen). The High Capacity cDNA Reverse Transcription kit (Life Technologies) was used to synthesize cDNAs from 2 μg RNA. The SYBR green qPCR assay kit and the ABI Prism Sequence Detector (Applied Biosystems) were used to amplify the cDNAs.\n(§6) Immunoblot analysis. Whole cell lysates were prepared in NP-40 lysis buffer and immunoblotted with antibodies against MUC1-C (LabVision), PD-L1 (Cell Signaling Technology) and β-actin (Sigma). Horseradish peroxidase secondary antibodies and enhanced chemiluminescence (GE Healthcare) were used for the detection of immune complexes."}, "H460 cells": {"test_system": "H460 cells", "test": "Gene expression (qRT-PCR) in treated H460 NSCLC cells", "type": "cell-based, human", "conditions": "5 μM BAY-11-7085, 18 h, vs DMSO", "experimental": "as §4, §5, §6"}, "BT-549 cells": {"test_system": "BT-549 cells", "test": "Expression (qRT-PCR, immunoblot) in treated BT-549 TNBC cells", "type": "cell-based, human", "conditions": "vs vehicle", "experimental": "as §1, §2, §3"}}}
{"smiles": "CC(C)(C)c1ccc(S(=O)(=O)/C=C/C#N)cc1", "note": "[BAY-11-7085]", "values": [{"measurement": "PD-L1 expression", "setting": "BT-20/MUC1-C cells; 5 μM BAY-11-7085, 24 h", "result": "suppression of PD-L1 expression"}, {"measurement": "MUC1-C→PD-L1 response (PD-L1 mRNA and protein)", "setting": "Eo771/MUC1-C cells; 5 μM BAY-11-7085, 24 h", "result": "inhibited"}, {"measurement": "PD-L1 expression (mRNA, qRT-PCR)", "setting": "H1975 cells", "result": "suppresses PD-L1 expression"}, {"measurement": "TLR7 mRNA levels", "setting": "H1975 cells", "result": "decreases in TLR7 mRNA levels"}, {"measurement": "PD-L1 expression (mRNA, qRT-PCR)", "setting": "H460 cells", "result": "suppresses PD-L1 expression"}, {"measurement": "TLR7 mRNA levels", "setting": "H460 cells", "result": "decreases in TLR7 mRNA levels"}, {"measurement": "PD-L1 expression", "setting": "BT-549 cells; 5 μM BAY-11-7085, 24 h", "result": "suppression of PD-L1 expression"}]}
{"smiles": "Cc1sc2c(c1C)C(c1ccc(Cl)cc1)=N[C@@H](CC(=O)OC(C)(C)C)c1nnc(C)n1-2", "note": "[JQ1]", "values": [{"measurement": "PD-L1 expression", "setting": "BT-20/MUC1-C cells; 5 μM JQ1, 48 h", "result": "downregulation of PD-L1 expression"}, {"measurement": "MUC1-C→PD-L1 response (PD-L1 mRNA and protein)", "setting": "Eo771/MUC1-C cells; 5 μM JQ1, 48 h", "result": "inhibited"}, {"measurement": "PD-L1 expression", "setting": "BT-549 cells; 5 μM JQ1, 48 h", "result": "downregulation of PD-L1 expression"}]}
